Measurements as given in US5912351A, “Anhydrous 1,4-Dihydropyridines and salts thereof” (Recordati, S.A. Chemical and Pharmaceutical Company, priority 1995, dated 1999).
Structures can show the parent of a compound that is named as a salt.

Columns and labels:
[1] = High temperature stress stability at 100° C., HPLC assay; format: physicochemical; details: in the light
Experimental: The two samples, lercanidipine hydrochloride hemihydrate, and anhydrous lercanidipine hydrochloride were heated, in the light, at 100° C. for 48 hours. The samples were tested at the following times; 0 hours, 24 hours, and 48 hours. The purity of the lercanidipine was checked by HPLC analysis under the following conditions:
Column: m-Bondapak C-18 (Waters), particle size […], 300×3.9 mm i.d.

[2] = Water content at 75% relative humidity (Karl-Fisher); format: physicochemical
Experimental: Samples of anhydrous lercanidipine hydrochloride and lercanidipine hydrochloride hemihydrate were placed in open polyethylene bags in flasks and heated, in the dark, at 60° C. and 75% relative humidity. The samples were checked for hygroscopicity by determination of the water content using the Karl-Fisher method. The samples were tested at 8 and 15 days.
Two additional samples of the anhydrous lercanidipine hydrochloride and lercanidipine hydrochloride hemihydrate were placed in open polyethylene bags in flasks and heated, in the dark, at 40° C. and 75% relative humidity. The samples were tested as described above at 8 and 15 days.

[3] = test system: mouse peritoneal macrophages; assay: Cholesteryl ester hydrolysis in macrophages; format: cell-based; details: AcLDL 50 μg/ml + S-58035 1 μg/ml
Experimental: These experiments were performed by incubating cells preloaded with [^3 H]cholesterol in the presence of the specific ACAT inhibitor S-58035. The blockage of intracellular reesterification of cholesterol allowed the assessment of the ability of cells to hydrolyze the accumulated cholesterol esters.
For studies involving the quantitation of the hydrolysis of cholesteryl esters in cytoplasmic lipid droplets, cells, prepared according to the procedure in Example 6A, are loaded with cholesteryl esters by exposure for 24 hours to the medium containing 50 μg/ml acetyl LDL. [1,2-^3 H]Cholesterol is included in all loading media at a concentration of 0.5 μCi/ml. After 24 hours loading period, during which time the radiolabeled cholesterol is incorporated and esterified, the cell monolayers are washed and incubated an additional 24 hours in medium containing 0.1% bovine serum albumin to allow the intracellular pools of labelled cholesterol to equilibrate to the same specific activity. To quantitate cholesteryl ester hydrolysis, the loaded cells are incubated for up to 24 hours in Dulbecco's minimum essential medium containing, 0.1% bovine serum albumin, lercanidipines, and the compound S-58035, an inhibitor of acyl-coenzyme A-cholesterol acyltransferase. The inhibition of acyl-coenzyme A-cholesterol acyltransferase prevents the reesterification of any free cholesterol generated by cholesteryl ester hydrolysis and thus allows assessment of the activity of the hydrolase. The hydrolysis of the cholesteryl esters is quantified by determining the decrease of radiolabeled cholesteryl esters (E. H. Harrison et al., J. Lipid. Res. 31: […] with phosphate buffered saline and extracted with hexane:isopropanol (3:2 v/v). The media were extracted with chloroform:methanol (2:1 v/v). After solvent removal, free and esterified cholesterol were separated by TLC (isooctane:diethyl ether:acetic acid, 75:25:2 by volume). Cholesterol mass or radioactivity of the spots were determined by an enzymatic method (Boehringer Mannheim, Germany) (F. Bernini et al., Atherosclerosis 104: 19 (1993)) or by liquid scintillation counting (Lipoluma Lumac, Landgraf, The Netherlands) respectively.

COC(=O)C1=C(C)NC(C)=C(C(=O)OC(C)(C)CN(C)CCC(c2ccccc2)c2ccccc2)C1c1cccc([N+](=O)[O-])c1 (stereo not shown) [Anhydrous, METHYL 1,1-N-TRIMETHYL-N-(3,3-DIPHENYLPROPYL)-2-AMINOETHYL 1,4-DIHYDRO-2,6-DIMETHYL-4-(3-NITROPHENYL) PYRIDINE-3,5-DICARBOXYLATE (LERCANIDIPINE) HYDROCHLORIDE]
Assay % by HPLC ([1]; 0 hr, HYDROCHLORIDE): 99.74%
remaining at 24 h ([1]; solid, 24 hrs): 99.4%
remaining at 48 h ([1]; solid, 48 hrs): 99%
Water Content ([2]; 40° C., 0 days, HYDROCHLORIDE): 0.28%
Water Content ([2]; 40° C., 8 days, HYDROCHLORIDE): 0.3%
Water Content ([2]; 40° C., 15 days, HYDROCHLORIDE): 0.32%
Water Content ([2]; 60° C., 0 days, HYDROCHLORIDE): 0.28%
Water Content ([2]; 60° C., 8 days, HYDROCHLORIDE): 0.85%
Water Content ([2]; 60° C., 15 days, HYDROCHLORIDE): 0.77%

CCCCCCCCCC[Si](C)(C)CCC(=O)NC(Cc1ccc(C)cc1)c1ccccc1 (stereo not shown) [Example S-58035, reference compound]
% of cholesteryl ester [3]: 15 ± 0.5%

COC(=O)C1=C(C)NC(C)=C(C(=O)OC(C)(C)CN(C)CCC(c2ccccc2)c2ccccc2)C1c1cccc([N+](=O)[O-])c1 (stereo not shown) [Hemihydrate, Lercanidipine hydrochloride hemihydrate, reference compound]
Assay % by HPLC ([1]; 0 hr): 99.85%
Assay % by HPLC ([1]; 24 hrs, hydrochloride hemihydrate, 1440 min): 92.35%
Assay % by HPLC ([1]; 48 hrs, hydrochloride hemihydrate, 2880 min): 90.96%
Water Content ([2]; 40° C., 0 days): 1.42%
Water Content ([2]; 40° C., 8 days): 3.14%
Water Content ([2]; 40° C., 15 days): 3.05%
Water Content ([2]; 60° C., 0 days): 1.42%
Water Content ([2]; 60° C., 8 days): 4%
Water Content ([2]; 60° C., 15 days): 4.04%
